Patent US7919300B2, “Glucose isomerase mutants” (priority 2004, dated 2011)
Where two headings read alike, the source gives them in different places.

Target: Thermoanaerobacterium saccharolyticum glucose isomerase (ATCC 49915), wild-type, SEQ ID NO.: 2 (Thermoanaerobacterium saccharolyticum, UniProt P30435)
Conditions: pH 6.5, 20 mM sodium phosphate, 250 μM CoCl2, 5 mM MgCl2, 10 minutes
Protocol: The isolation and purification of wild-type glucose isomerase were based on Lee et al., (Journal of General Microbiology, 139:1227-1234, 1993) with modifications. pGEMT-TS transformed E. coli HB101 cells were incubated on 1% MacConkey agar plate containing 1% xylose and 50 mg/L ampicillin at 37° C. for 36 hours. A single colony from the plate was inoculated and cultivated in 5 mL LB supplemented with 50 mg/L ampicillin for 16 hours. The bacterial cells were pelleted and resuspended in 1 ml 20 mM phosphate buffer (pH 6.5), and CoCl2 and MgCl2 were added to final concentration of 250 μM and 5 mM, respectively. The cells were disrupted by using ultrasonication and centrifuged at 17,800 g for 15 minutes at 10° C. to collect the supernatant as crude glucose isomerase. The crude enzyme was heated at 80° C. for 10 minutes and centrifuged again at 17,800 g for 15 minutes at 10° C. to remove the precipitation.
Ninety μl of the stock solution was mixed with 10 μl of the glucose isomerase prepared as described in Example 9, incubated at 80° C. for 10 minutes and quenched on ice immediately. The fructose formed was measured by the cysteine-carbazole method (Dische et al., J. Biol. Chem, 192:583-587, 1951; and Nakamura, Agr. Biol. Chem. 32:701-706, 1968). The protein concentration was determined using Coomassie® Plus Protein Assay Reagent Kit (Pierce, USA) and SDD-PAGE, with BSA as the standard.

Chain of Thermoanaerobacterium saccharolyticum glucose isomerase (ATCC 49915), wild-type, SEQ ID NO.: 2 (P30435 whole entry R81A): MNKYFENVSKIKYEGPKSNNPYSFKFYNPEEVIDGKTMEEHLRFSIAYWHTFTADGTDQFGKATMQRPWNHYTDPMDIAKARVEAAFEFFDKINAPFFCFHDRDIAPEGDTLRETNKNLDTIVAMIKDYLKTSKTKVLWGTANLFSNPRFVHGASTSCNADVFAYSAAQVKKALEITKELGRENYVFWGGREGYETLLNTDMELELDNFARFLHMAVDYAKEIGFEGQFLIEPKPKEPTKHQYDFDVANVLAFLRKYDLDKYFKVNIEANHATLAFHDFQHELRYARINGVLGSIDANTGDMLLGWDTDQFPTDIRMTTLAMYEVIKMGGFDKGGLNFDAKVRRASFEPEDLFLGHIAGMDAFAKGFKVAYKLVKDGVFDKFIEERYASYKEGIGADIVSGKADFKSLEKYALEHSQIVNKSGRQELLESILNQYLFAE

SMILES: OC[C@H]1OC(O)[C@H](O)[C@@H](O)[C@@H]1O (stereo partly drawn) [D-glucose]
- Kcat (65° C.): 5.742 s⁻¹
- Kcat/Km (65° C.): 41.7 M⁻¹ s⁻¹
- Kcat (80° C.): 14.68 s⁻¹
- Kcat/Km (80° C.): 98.3 M⁻¹ s⁻¹
